# According to patent publication US9284559B2, “Multivalent aptamer complexes” (Wake Forest University Health Sciences, priority 2009, dated 2016):
# Legend:
# PC3 xenografts = test: In vivo xenograft study of anti-tumor activity; settings: for tumor growth relative to control: i.v. 1× per week via jugular vein catheter, 5FU 100 mg/kg, first 44 days, FdUMP[10] effect from day 18
# Text: FIG. 7. Plot of tumor size versus time for PC3 xenografts in nude mice. Data are shown for four treatment groups (n=8 in each group): 1) control 1; 2) FdUMP[10]; 3) control 2; 4) 5-FU. The FdUMP[10] and 5FU studies were done consecutively (rather than concurrently) so that two control groups were required.
# The principal strategy that will be used to render the dimeric aptamer complexes we have developed selectively cytotoxic towards targeted cancer cells is to include cytotoxic nucleotides, such as FdU, in the structure. While other modalities may also be included to render these modified aptamers cytotoxic to cancer cells (e.g. siRNA, toxins), there is considerable merit to the concept that dimeric aptamer complexes are the best method for delivery of FdU and other cytotoxic nucleotide analogs in the future. In principle, delivery of cytotoxic nucleotide analogs in aptamers increases the selectivity and potency of these drugs while minimizing systemic toxicities. In this regard, it is important to consider the advantages obtained by inclusion of FdU in single-stranded DNA (e.g. FdUMP[10]) relative to delivery as the nucleobase (5FU). We have shown that not only does delivery of fluoropyrimidine (FP) as FdUMP[10] increase efficacy and decrease toxicity, it also changes the spectrum of malignancies that are responsive to FP treatment. […] PSMA, the target for the dimeric aptamer complexes being developed by us, is frequently expressed in advanced prostate cancer. PSMA is also frequently expressed in tumor neovasculature. As FPs are widely used for treatment of solid tumors, the dimeric aptamer complexes developed in these studies should provide an improved mechanism for tumor-specific delivery of FPs.
# We recently completed an in vivo xenograft study evaluating the anti-tumor activity of FdUMP[10] and 5FU towards PC3 xenografts (FIG. 8). […] FdUMP[10] (150 mg/kg) was injected i.v. 1× per week via jugular vein catheter. 5FU (100 mg/kg) was also injected 1× per week by the same route. […] FdUMP[10] was well-tolerated at the administered dose. A mixed effects model was fit to examine whether there were differences between groups over the first 44 days after administration of FdUMP[10] or 5FU. In this model, individual animals were considered as random effects and the group and day variables were considered as fixed effects. […] We expect that with dimeric aptamer complexes including FdU, we will further increase the selectivity for malignant cells and further reduce systemic toxicities. Thus, dimeric aptamer complexes may ultimately become the preferred method for administering fluoropyrimidine chemotherapy in the era of molecularly targeted cancer therapeutics.
# PC3 cells [1] = test: Relative cytotoxicity of activated FPs in PC3 versus C4-2 cells; type: cell-based; settings: PC3 mutant p53, C4-2 wtp53; ongoing studies
# PC3 cells [2] = test: Fluorescence microscopy of fluorescently-labeled aptamer on live cells (PSMA− negative control); type: cell-based; settings: 2 h, room temperature
# Protocol: (§1) FIG. 1. Fluorescence microscopy images of the PSMA01 DNA aptamer binding to (A) C4-2 cells; (B) LNCaP cells; (C)PC3 cells. (D) Binding of the A10-3 RNA aptamer to C4-2 cells. Live cells were incubated in PBS with 1×10^−6 M Rhodamine-conjugated aptamer for 2 h at room temperature. Cells were fixed with 3.7% formaldehyde for 2 min prior to visualization using an Olympus inverted microscope.
# (§2) In these studies, live (non-fixed cells) cells were incubated in the presence of fluorescently-labeled aptamer for 2 h at room temperature. In these studies, C4-2 and LNCaP cells were used to evaluate binding to PSMA+ cells while PC3 cells were used as a PSMA− negative control.
# C4-2 cells [3] = test: Fluorescence microscopy of fluorescently-labeled aptamer, dimeric complex or mAb on live cells; type: cell-based
# Protocol: as §1
# FIG. 3. Fluorescence microscopy images of (A) a monomeric aptamer conjugate of PSMA01 with a dT16 tail; (B) a dimeric aptamer complex consisting of 1:1 ratio of monomeric PSMA01 conjugates with dA16 and dT16 tails; (C) the J591 mAb. All images were obtained using live C4-2 cells. For (A) and (B) cells were prepared as described in FIG. 4. […]
# We have has formed an affinity matrix using recombinant PSMA expressed from baculovirus. […] Protein purity was determined by gel electrophoresis and the identity of the protein was confirmed by Western blotting and mass spectrometry. […] The ssDNA product was analyzed by gel electrophoresis and quantified by UV absorption. […] DNA sequences were determined from individual clones at the core DNA sequencing facility of the CCCWFU. […] These sequences were also shown using fluorescence microscopy to bind selectively to PSMA-expressing prostate cancer cells (LNCaP, C4-2) relative to PC3 cells. […]
# LNCaP cells = test: Fluorescence microscopy of fluorescently-labeled aptamer on live cells; type: cell-based; settings: PSMA+ cells, 2 h, room temperature
# Protocol: as §1, §2
# C4-2 cells [4] = test: Flow cytometry of binding of fluorescently labeled aptamers and dimeric aptamer complexes; type: cell-based; settings: FIG. 6; Quasar 570 / Quasar 670 fluorescence
# Protocol: FIG. 6. Flow cytometry evaluation of the binding of fluorescently labeled aptamers and dimeric aptamer complexes with and without flexible linkers to C4-2 cells. Aptamer labeling with Quasar 570 and Quasar 670 was done as described in FIG. 8.
# The relative binding of the PSMA01 DNA aptamer in monomeric form as well as in dimeric form with and without flexible linkers was also evaluated towards C4-2 cells using flow cytometry. Cells were treated in the same manner as described for the confocal microscopy experiments and were detached using an enzyme-free cell-dissociation buffer (Invitrogen). Cells were analyzed using a BD FACSCanto flow cytometry system and the data were analyzed using BD FACSDiva software (BD Biosciences, San Jose, Calif.).
Molecule,tumor growth relative to control (PC3 xenografts; FdUMP[10] 150 mg/kg),"tolerability / body weight at administered dose (PC3 xenografts; mouse, in vivo)","tolerability / body weight at administered dose (PC3 xenografts; i.v. 1× per week, FdUMP[10] 150 mg/kg, 5FU 100 mg/kg (maximum tolerated dose))",relative sensitivity of PC3 versus C4-2 cells to activated FPs (PC3 cells [1]),binding to PC3 cells (PC3 cells [2]),"internalization into PSMA+ cells (C4-2 cells [3]; C4-2 and LNCaP cells, incubation at room temperature or 37° C.)","binding to C4-2 cells (C4-2 cells [3]; PSMA+ cells, live cells, 1×10^−6 M Rhodamine-conjugated aptamer, 2 h, room temperature)",binding to LNCaP cells (LNCaP cells),mean fluorescence intensity (cell binding) (C4-2 cells [4])
"O=c1[nH]cc(F)c(=O)[nH]1 [5FU, 5-fluorouracil]",did not reduce tumor growth rates relative to control,lost weight compared to the controls,,,,,,,
FdUMP[10],significantly reduced tumor growth relative to control,,well-tolerated,PC3 cells are more sensitive,,,,,
"PSMA01: DNA aptamer to PSMA, 5′-GCGTTTTCGCTTTTGCGTTTTGGGTCATCTGCTTACGATAGCAATCGT (SEQ ID NO: 1) (DNA, backbone and methylation of C not given here; further chemistry not fully specified)",,,,,no binding,Neither our PSMA-01 DNA aptamer nor the A10-3 aptamer were internalized into PSMA+ cells to any significant extent,selective binding,selective binding,right-shifted relative to background
